Legend:
Format in all cases: in vivo, human
[1] = system: clinically stable subjects with schizophrenia; assay: Clinical Study A (Phase 2a, placebo-controlled): MATRICS Consensus Cognitive Battery (MCCB); conditions: Phase 2a study; printed indication AD
[2] = system: clinically stable subjects with schizophrenia; assay: Clinical Study A: CANTAB cognition battery; conditions: 10 mg and 25 mg
Source text: A Phase 2a proof-of-concept (POC) study in clinically stable subjects with schizophrenia who were clinically stable and received stable doses of atypical antipsychotic therapy. The study was a Phase 2, multi-center, randomized, double-blind, placebo-controlled, parallel group study designed to evaluate the safety and efficacy of doses of (4s)-4-(5-phenyl-1,3,4-thiadiazol-2-yloxy)-1-azatricyclo[3.3.1.1^3,7]decane (Compound A) in clinically stable male and female subjects (ages 20 to 55, inclusive) with a Diagnostic and Statistical Manual of Mental Disorders Fourth Edition, Text Revision (DSM-IV-TR) diagnosis of schizophrenia. […] The criteria for clinical stability was determined by a combination of retrospective data (over the 4 months prior to the start of Screening, which will be supported by clinical records, patient, identified responsible contact person, and physician interviews), and prospective data assessed during the Prospective Stabilization Period of 28 to 42 days duration. […]
The primary endpoint was the MCCB composite score, and the primary endpoint analysis was the change on the MCCB composite score from baseline to endpoint versus placebo. Other secondary measures included the MCCB domains, the NSA-16, the CANTAB cognition battery (measured at different time points from the MCCB), and the UPSA-2. […]

[3] = system: clinically stable subjects with schizophrenia; assay: Clinical Study A: UCSD Performance-Based Skills Assessment-2 (UPSA-2); conditions: for UPSA-2 Total Score: Difference from Placebo LS Mean (SE) of Difference / UPSA-2 Total Score: LS Mean (SE) of Change: Baseline to Final Evaluation, ANCOVA; for UPSA-2 Total Score: Observed Mean (SD) Final: Final Evaluation
Source text: (§1) A Phase 2a proof-of-concept (POC) study in clinically stable subjects with schizophrenia who were clinically stable and received stable doses of atypical antipsychotic therapy. The study was a Phase 2, multi-center, randomized, double-blind, placebo-controlled, parallel group study designed to evaluate the safety and efficacy of doses of (4s)-4-(5-phenyl-1,3,4-thiadiazol-2-yloxy)-1-azatricyclo[3.3.1.1^3,7]decane (Compound A) in clinically stable male and female subjects (ages 20 to 55, inclusive) with a Diagnostic and Statistical Manual of Mental Disorders Fourth Edition, Text Revision (DSM-IV-TR) diagnosis of schizophrenia. Psychiatric diagnoses were confirmed using the Mini-International Neuropsychiatric Interview (MINI) version 6.0.0. The criteria for clinical stability was determined by a combination of retrospective data (over the 4 months prior to the start of Screening, which will be supported by clinical records, patient, identified responsible contact person, and physician interviews), and prospective data assessed during the Prospective Stabilization Period of 28 to 42 days duration.
(§2) The study was a Phase 2, multi-center, randomized, double-blind, placebo-controlled, parallel group study designed to evaluate the safety and efficacy of doses of (4s)-4-(5-phenyl-1,3,4-thiadiazol-2-yloxy)-1-azatrieyclo[3.3.1.1^3,7]decane, which is also recognized as Compound A, in treating cognitive deficits in subjects with schizophrenia who were clinically stable and receiving one or two atypical antipsychotic medications. Study drug was administered orally.
(§3) The study consisted of a screening period of at least 28 and up to 42 days, a 84-day outpatient treatment period, a 14-day post-treatment period, and a post-treatment follow-up period. The screening period consisted of three visits: Screening Visit 1, Screening Visit 2, and Day −1. Upon completion of Day −1 procedures, eligible subjects were randomized through an Interactive Voice Response/Interactive Web-Based (IVR/IWB) system. Subjects were randomized in an equal ratio to one of three treatment groups (placebo, 10 mg Compound A, or 25 mg Compound A).
(§4) Subjects were randomized in a 1:1:1 ratio with placebo, 10 mg QD Compound A, of 25 mg Compound A. Each subject was instructed to take study drug once-daily in the morning for 12 weeks. Each daily dose was preferably taken with food. The subject and investigator were blinded to the treatment assignment throughout the study. The treatment assignments for the study subjects are shown below in Table 1.
The primary endpoint was the MCCB composite score, and the primary endpoint analysis was the change on the MCCB composite score from baseline to endpoint versus placebo. Other secondary measures included the MCCB domains, the NSA-16, the CANTAB cognition battery (measured at different time points from the MCCB), and the UPSA-2. The Positive and Negative Syndrome Scale (PANSS) was included to document stability in schizophrenia symptomatology.
The UCSD Performance-Based Skills Assesstnent-2 (UPSA-2) is a role-play test designed for subjects with schizophrenia to evaluate cognitive functional capacity in six selected domains of basic living skills. These areas include Organization/Planning Financial Skills, Communication, Transportation, Household Management, and Medication Management. […] Scores were obtained for each subtest, and the total score was the sum of these subtests. […] The UPSA-2 required an average of 30 minutes to administer. The UPSA-2 was administered in on Days 14, 28, 56, 84 and 98.

[4] = system: clinically stable subjects with schizophrenia; assay: Clinical Study A: disposition of subjects, discontinuations and tolerability
Source text: as §1, §2, §3, §4
Subjects completed 2 visits during the screening period. Study site personnel contacted each subject by telephone on Day 21, 35, and 70 of the 84-day treatment period to discuss study drug compliance, antipsychotic medication compliance, concomitant medication use, substance use, and any adverse events.
A total of 207 subjects were randomized.

## c1ccc(-c2nnc(O[C@@H]3C4CC5C[C@H]3C[N@](C5)C4)s2)cc1 [Compound A, (4s)-4-(5-phenyl-1,3,4-thiadiazol-2-yloxy)-1-azatricyclo[3.3.1.1^3,7]decane]
[1]
  Signal for efficacy in symptomatic treatment: demonstrated a signal for efficacy
[2]
  CANTAB battery results relative to MCCB results: consistent
[3]; 10 mg QD
  UPSA-2 Total Score: Difference from Placebo LS Mean (SE) of Difference: 0.51 (2.15)
  UPSA-2 Total Score: LS Mean (SE) of Change: 2.78 (1.52)
  UPSA-2 Total Score: Observed Mean (SD) Final: 87.98 (20.36)
[3]; 25 mg QD
  UPSA-2 Total Score: Difference from Placebo LS Mean (SE) of Difference: 0.63 (2.34)
  UPSA-2 Total Score: LS Mean (SE) of Change: 2.89 (1.70)
  UPSA-2 Total Score: Observed Mean (SD) Final: 94.29 (15.85)
[3]; either dose group (10 mg, 25 mg)
  UPSA-2 composite score: significance versus placebo: No significance
[4]; 10 mg QD
  Discontinuation, primary reason Adverse event, % of treated subjects: (5.8) %
[4]; 25 mg QD
  Discontinuation, primary reason Adverse event, % of treated subjects: (4.5) %
[4]; Compound A Overall
  Discontinuation, primary reason Adverse event, % of treated subjects: (5.1) %
[4]; human patients with schizophrenia, summary statement
  Tolerability: generally well tolerated
[4]; subjects with schizophrenia, doses up to 25 mg QD, including 10 mg QD and 25 mg QD
  Tolerability: well tolerated
